{"source": "patent US20100292306A1", "about": "“Compositions And Methods For The Treatment Of Muscular Dystrophy” (priority 2005, published 2010)", "key": {"[1]": {"tested_on": "nondystrophic and mdx TS muscle fibers", "experiment": "Effect of Gd^3+ on resting membrane potential of isolated TS muscle preparations", "type": "cell-based, mice", "description": "The effect of the Ca^2+ channel blocker, Gd^3+, on the resting membrane potential was examined in both nondystrophic and mdx TS muscle preparations. Gd^3+ blocks both nonselective cation channels and more Ca^2+-selective leak channels (Franco et al., 1991 and Yang and Sachs, 1989) and, at concentrations of 20-100 μM, eliminates fluorometric determinations of resting Ca^2+ influx in a variety of cells (Broad et al., 1999, Carlson and Geisbuhler, 2003, Cox et al., 2002 and Samadi et al., 2005). […]\nThe potential effect of Gd^3+ on resting potential was determined in several nondystrophic (5-17 months) and mdx (5-11.5 months) TS preparations by first recording from several cells in normal HEPES Ringer solution, and then adding 100 μM GdCl3 to the solution while recording continuously from a single fiber. After removing the electrode from the fiber, the resting potential of several additional fibers were determined in the presence of the lanthanide. The average resting potential in nondystrophic fibers bathed in normal HEPES Ringer was −50.1±1.4 (SE) mV, a value lower than that recorded in this laboratory from nondystrophic diaphragm (−63±1.3 mV, N=98 fibers, 5 weeks to 2 years of age; Carlson and Roshek, 2001)."}, "[2]": {"tested_on": "nuclear NF-κB activation", "conditions": "long term treatment; Durham et al. (2006); cited from earlier work"}, "[3]": {"tested_on": "mdx TS muscle fibers", "experiment": "Intracellular recording of resting membrane potential in TS muscle fibers after chronic treatment", "type": "in vivo, mdx mice", "conditions": "sulfasalazine 100 mg/kg ip daily 68 days, vs vehicle littermate"}, "[4]": {"tested_on": "nuclear NFκB", "experiment": "EMSA of nuclear NFκB binding in costal diaphragm nuclear extracts after single injection", "type": "in vivo, mdx mice", "conditions": "sulfasalazine 100 mg/kg ip single injection, 3 hours, mdx 3 to 3.5 months", "description": "MDX mice aged 3 to 3.5 months were injected with either sulfasalazine (SS; 100 mg/kg, ip) or vehicle (HEPES Ringer; in mM: 147.5 NaCl, 5 KCl, 2 CaCl2, 11 glucose, 5 HEPES, pH 7.35) and euthanized at 3 hours post-injection. The costal diaphragms were removed and flash frozen before beginning the extract procedure. Nuclear and cytosolic extracts were obtained using a procedure slightly modified from that described in Carlson et al. (2005) and Kumar and Boriek (2003). […] Protein determinations were determined by the method of Lowry using bovine serum albumin standards (20 μg nuclear protein was added to each lane).\n; in mM: 147.5 NaCl, 5 KCl, 2 CaCl2, 11 glucose, 5 HEPES, pH 7.35; 0.1% DMSO) and euthanized at 3 hours post-injection. […] Protein determinations were determined by the method of Lowry using bovine serum albumin standards (20 μg nuclear protein was added to each lane)."}, "[5]": {"tested_on": "TNFα", "experiment": "ELISA of TNFα in cytosolic muscle extracts after single sulfasalazine injection", "type": "in vivo, mdx mice", "conditions": "mdx costal diaphragm; SS 100 mg/kg ip single injection, 3 hours", "source_text": "(§1) Each diaphragm was divided into costal and crural regions which were processed and analyzed separately. After determining protein concentrations for each of the cytosolic and nuclear extracts (Lowry assay), samples of each extract were used to obtain standard ELISA determinations of mouse TNFα, IL-6, and IL-1β using standard procedures (Assay Designs, Inc.). These particular NFκB products were chosen because of their role in the inflammatory reaction and previously published results indicating the presence of these cytokines in nondystrophic skeletal muscle homogenates (Molina et al., Neuroimmunomodulation, 4, 28-36, 1997; Jonsdottir et al., J. of Physiol. (Lond.), 528.1, 157-163, 2000; Lang et al., Shock, 19(6), 538-546, 2003).\n(§2) MDX mice aged 3 to 3.5 months were injected with either SS (100 mg/kg) or vehicle (HEPES Ringer; in mM: 147.5 NaCl, 5 KCl, 2 CaCl2, 11 glucose, 5 HEPES, pH 7.35) and euthanized at 3 hours post-injection. The costal and crural diaphragms and the gastrocnemius muscle were then immediately removed and flash frozen before beginning the procedure to obtain nuclear and cytosolic extracts as described in Example 10. ELISA determinations of TNFα, Il1-β, and IL6 were determined as described in Example 9."}, "[6]": {"tested_on": "IL1-β", "experiment": "ELISA of IL1-β in cytosolic muscle extracts after single sulfasalazine injection", "type": "in vivo, mdx mice", "conditions": "SS 100 mg/kg ip single injection, 3 hours", "source_text": "as §1, §2"}, "[7]": {"tested_on": "IL6", "experiment": "ELISA of IL6 in cytosolic muscle extracts after single sulfasalazine injection", "type": "in vivo, mdx mice", "conditions": "costal and crural diaphragms; SS 100 mg/kg ip single injection, 3 hours", "source_text": "as §1, §2"}, "[8]": {"experiment": "Observation of viability, side effects and body weight during treatment"}}, "note": "“Also recorded” adds a separate entry of the source.", "data": [{"compound": "[Cl][Gd]([Cl])[Cl]", "note": "[Gd^3+, GdCl3]", "values": [{"measurement": "change in resting potential, total sample of fibers", "setting": "[1]; 100 μM GdCl3, failed to reach statistical significance in nondystrophic or mdx", "result": "slight hyperpolarization"}, {"measurement": "effect on resting potential when added during recording", "setting": "[1]; 100 μM GdCl3 added while recording from nondystrophic or mdx fibers", "result": "No effect"}]}, {"compound": "COc1cc(/C=C/C(=O)CC(=O)/C=C/c2ccc(O)c(OC)c2)ccc1O", "note": "[curcumin, diferuloylmethane]", "values": [{"measurement": "nuclear NF-κB activation in mdx costal diaphragm", "setting": "[2]", "result": "did not reduce"}]}, {"compound": "O=C(O)c1cc(/N=N/c2ccc(S(=O)(=O)Nc3ccccn3)cc2)ccc1O", "note": "[sulfasalazine, Sulfasalazine]", "values": [{"measurement": "resting potential of TS muscle fibers", "setting": "[3]", "result": "significantly improves"}, {"measurement": "resting potential of TS muscle fibers", "setting": "[3]; listed as SS", "result": "significantly improved"}, {"measurement": "nuclear NFκB binding to consensus sequence / nuclear NF-kappaB activation", "setting": "[4]", "result": "may reduce"}, {"measurement": "nuclear NFκB binding to consensus sequence / nuclear NF-kappaB activation", "setting": "[4]; listed as SS", "result": "reduction"}, {"measurement": "expression of TNFα in cytosolic extracts", "setting": "[5]", "result": "reduced"}, {"measurement": "expression of IL1-β in cytosolic extracts", "setting": "[6]", "result": "did not reduce; also recorded: not influenced"}, {"measurement": "expression of IL6 in cytosolic extracts", "setting": "[7]", "result": "did reduce; also recorded: reduced"}, {"measurement": "body weight", "setting": "[8]; SS 100 mg/kg ip daily 68 days", "result": "maintained their body weight"}, {"measurement": "side-effects of chronic treatment schedule", "setting": "[8]; SS 100 mg/kg ip daily 68 days", "result": "no obvious side-effects"}, {"measurement": "side effects after injection", "setting": "[8]; SS 100 mg/kg ip, aside from 5 to 10 sec restlessness", "result": "no obvious side effects"}]}]}
